Read-outs that look alike come from different tables or passages of the source.
Key:
[1] = tested on: maximal electroshock-induced seizures (MES); test: maximum electroshock seizure test (MES), anticonvulsant activity; type: in vivo, mouse
From the text: The compounds of the present invention may be tested for in vivo anticonvulsant activity after i.v., p.o. or i.p. injection using a number of anticonvulsant tests in mice, including the maximum electroshock seizure test (MES). Maximum electroshock seizures are induced in male NSA mice weighing between 15-20 g and male Sprague-Dawley rats weighing between 200-225 g by application of current (50 mA, 60 pulses/sec, 0.8 msec pulse width, 1 sec duration, D.C., mice; 99 mA, 125 pulses/sec, 0.8 msec pulse width, 2 sec duration, D.C., rats) using a Ugo Basile ECT device (Model 7801). Mice are restrained by gripping the loose skin on their dorsal surface and saline-coated corneal electrodes are held lightly against the two corneae. Rats are allowed free movement on the bench top and ear-clip electrodes are used. Current is applied and animals are observed for a period of up to 30 seconds for the occurrence of a tonic hindlimb extensor response. A tonic seizure is defined as a hindlimb extension in excess of 90 degrees from the plane of the body. Results are treated in a quantal manner.
The ability of compounds of the present invention to block maximal electroshock-induced seizures (MES) is determined as described earlier.
A compound of the present invention is administered p.o. to mice 30 minutes before the test procedure.

[2] = target: rBIIA isoform of Na+ channels (Rattus norvegicus, UniProt P04775); test: electrophysiological assay, patch-clamp recordings of voltage-sensitive Na+ currents in HEK-293 cells; type: cell-based; settings: rBIIA isoform of sodium channel
Method: Cell preparation: HEK-293 (NaIIA-B2) cell line stably expressing the rBIIA isoform of Na^+ channels is established in-house. The cells are cultured using standard techniques, as described previously (Verdoorn, T. A, et al., Neuron 4:919-928 (1990)). For electrophysiology, cells are plated onto poly-D-lysine pre-coated Cellware 35 mm Petri dishes (BIOCOAT, Becton Dickinson) at a density of ˜10^4 cells/dish on the day of re-seeding from confluent cultures. Our experience has been that cells are suitable for recordings for 2-3 days after plating.
Patch-clamp recordings of voltage-sensitive Na^+ currents: Whole-cell voltage-clamp recordings are made using conventional patch-clamp techniques (Hamill et al., Pfluegers Arch. 391:85-100 (1981)) with an Axopatch 200A amplifier (Axon Instruments, Foster City, Calif.). The recording chamber is continuously superfused with the external solution (150 mM NaCl, 5.4 mM KCl, 1.8 mM CaCl2, 1 mM MgCl2, 10 mM HEPES, 10 mM glucose, pH 7.4 adjusted with NaOH, osmolality ˜320 mmol/kg) at a speed of about 1 mL/min. […] Currents are recorded at room temperature (22-25° C.), filtered at 3 kHz with an active 8-pole Bessel filter (Frequency Devices, Haverhill, Mass.), digitized at 10-50 μs intervals, and stored using Digidata 1200 analog/digital interface with Pclamp6/Clampex software (Axon Instruments). […]

[3] = iv, mouse, i.v., read-out: MES i.v. ED50

Sequence of rBIIA isoform of Na+ channels (P04775 whole entry, canonical isoform): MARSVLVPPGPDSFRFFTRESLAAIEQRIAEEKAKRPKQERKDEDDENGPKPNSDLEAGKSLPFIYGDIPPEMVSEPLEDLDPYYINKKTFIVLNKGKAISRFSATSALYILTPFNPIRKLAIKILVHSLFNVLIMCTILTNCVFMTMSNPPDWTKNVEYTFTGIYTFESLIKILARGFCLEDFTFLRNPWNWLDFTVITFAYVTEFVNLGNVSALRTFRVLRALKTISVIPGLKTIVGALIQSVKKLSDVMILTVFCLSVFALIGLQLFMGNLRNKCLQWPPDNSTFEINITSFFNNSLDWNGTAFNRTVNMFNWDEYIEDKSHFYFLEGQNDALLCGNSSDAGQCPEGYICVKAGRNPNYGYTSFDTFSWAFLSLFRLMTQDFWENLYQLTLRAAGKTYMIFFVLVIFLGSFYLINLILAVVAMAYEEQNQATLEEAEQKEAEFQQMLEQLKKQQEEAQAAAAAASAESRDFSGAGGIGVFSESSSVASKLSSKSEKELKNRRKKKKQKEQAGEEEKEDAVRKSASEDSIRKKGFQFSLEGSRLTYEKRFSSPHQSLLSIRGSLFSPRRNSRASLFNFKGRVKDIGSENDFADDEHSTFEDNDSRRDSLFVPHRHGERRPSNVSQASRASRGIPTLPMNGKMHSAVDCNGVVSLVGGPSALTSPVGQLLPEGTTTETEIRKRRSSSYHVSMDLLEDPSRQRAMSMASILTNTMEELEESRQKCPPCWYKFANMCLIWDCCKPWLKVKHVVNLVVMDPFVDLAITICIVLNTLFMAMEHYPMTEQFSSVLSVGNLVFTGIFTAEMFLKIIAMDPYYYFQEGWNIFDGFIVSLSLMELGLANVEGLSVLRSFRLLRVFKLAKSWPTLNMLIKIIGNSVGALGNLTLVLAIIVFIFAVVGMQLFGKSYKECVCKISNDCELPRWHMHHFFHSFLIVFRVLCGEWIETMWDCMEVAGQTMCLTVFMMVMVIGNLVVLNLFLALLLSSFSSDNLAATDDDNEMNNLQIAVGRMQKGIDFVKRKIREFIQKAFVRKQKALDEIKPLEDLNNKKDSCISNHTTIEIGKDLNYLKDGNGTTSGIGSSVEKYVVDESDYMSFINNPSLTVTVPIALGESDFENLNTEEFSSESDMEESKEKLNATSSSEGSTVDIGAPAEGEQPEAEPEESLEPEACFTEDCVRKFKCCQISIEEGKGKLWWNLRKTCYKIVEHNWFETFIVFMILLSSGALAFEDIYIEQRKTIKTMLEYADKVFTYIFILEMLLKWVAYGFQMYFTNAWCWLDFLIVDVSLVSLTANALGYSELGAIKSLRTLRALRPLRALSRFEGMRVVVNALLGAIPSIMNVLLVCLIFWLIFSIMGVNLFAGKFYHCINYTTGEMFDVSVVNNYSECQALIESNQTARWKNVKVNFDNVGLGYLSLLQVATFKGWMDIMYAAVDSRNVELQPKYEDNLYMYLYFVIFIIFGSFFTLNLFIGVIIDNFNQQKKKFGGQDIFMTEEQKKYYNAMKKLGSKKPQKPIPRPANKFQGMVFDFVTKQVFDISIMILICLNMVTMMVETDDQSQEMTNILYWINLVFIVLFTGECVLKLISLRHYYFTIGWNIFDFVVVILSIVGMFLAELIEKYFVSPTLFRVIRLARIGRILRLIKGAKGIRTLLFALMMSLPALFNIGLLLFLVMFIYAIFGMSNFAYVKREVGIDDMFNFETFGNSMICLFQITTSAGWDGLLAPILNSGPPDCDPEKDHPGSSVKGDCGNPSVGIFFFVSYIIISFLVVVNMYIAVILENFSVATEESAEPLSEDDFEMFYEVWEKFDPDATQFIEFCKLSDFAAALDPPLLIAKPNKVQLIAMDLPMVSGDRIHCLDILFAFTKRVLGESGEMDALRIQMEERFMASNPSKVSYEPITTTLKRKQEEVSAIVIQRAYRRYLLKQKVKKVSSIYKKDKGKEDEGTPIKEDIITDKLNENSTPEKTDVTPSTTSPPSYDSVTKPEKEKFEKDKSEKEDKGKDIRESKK

melting point [°C] | Ki [2] [µM] | Compound | ED50 [1, 3] [mg/kg] | ED50 ([1]; Mus musculus, po, mice, 30 minutes before the test procedure, read-out: MES po ED50) [mg/kg]
165 to 167 | 0.35 | NC(=O)c1ccn(-c2ccc(Oc3ccccc3)cc2)n1 [1-(4-Phenoxyphenyl)-1H-pyrazole-3-carboxamide] | 0.7 | –
142 to 144 | – | NC(=O)c1ccnn1-c1ccc(Oc2ccccc2)cc1 [1-(4-phenoxyphenyl)-1H-pyrazole-5-carboxamide] | 10 | –
– | – | O=[N+]([O-])c1ccc(Oc2ccc(-n3cncn3)cc2)cc1 [1-[4-(4-Nitrophenoxy)phenyl]-1H-[1,2,4]triazole] | – | 6.6

From patent US6919363B2, “Aryl substituted pyrazoles, triazoles and tetrazoles, and the use thereof” (Euro-Celtique S.A., priority 2000, dated 2005)
